{"source": "patent US20190225670A1", "about": "“COMPOUNDS AND METHODS FOR ACTIVATING TIE2 SIGNALING” (ASCLEPIX THERAPEUTICS, LLC, priority 2016, published 2019)", "key": {"[1]": {"system": "VEGFR2, c-Met, IGF1R, and PDGFRβ", "details": "Lee et al., Sci Rep. 2014; cited from earlier work"}, "MEC monolayers": {"system": "MEC monolayers", "assay": "FITC Transwell permeability assay", "assay_type": "cell-based, human", "method": "The integrity of these junctions is also important for the regulation of monolayer permeability by controlling the size of intercellular openings. The effect of the AXT107 on EC permeability was further investigated by the transendothelial diffusion of FITC-labeled dextran across MEC monolayers seeded onto permeable Transwell® substrates.\nTranswell, twenty-four-well inserts (Corning) were coated with 7.5 μg/cm^2 FN1 for two hours at 37° C., aspirated, and then dried for thirty minutes at room temperature. Wells were then seeded with 7.5×10^4 MECs in 100 μl of EBM-2 media (without phenol red) and allowed to settle for thirty minutes at room temperature. 1 ml of EGM-2 media was then added to the bottom chamber and an additional 200 μl to the top chamber. The plate was incubated for twenty-four hours at 37° C. after which the media was aspirated and an additional 7.5×10^4 MECs were plated in each well as described above. After forty-eight hours at 37° C., the media was aspirated from both chambers and the cells were washed twice in dPBS containing Ca^2+ and Mg^2+, once with EBM-2 media (without phenol red) and serum starved in EBM-2 media applied to both chambers for two hours at 37° C. After this incubation, 100 μM AXT107 or an equivalent amount of DMSO vehicle was added and incubated for an additional ninety minutes. In the top chamber, the cells were then treated with 200 ng/ml Ang2, 100 ng/ml VEGFA, both, or PBS control and in the bottom chamber, the cells were then treated with 25 μg/ml FITC-Dextran (40 kDa MW). AXT107 was also added in both chambers to maintain a concentration of 100 μM. After three hours, 10 μl was removed from the top chamber of each well and mixed with 90 μl of water in a clear bottom, 96-well plate. Fluorescence values for each sample were calculated using a Perkin Elmer plate reader."}, "integrin α5β1": {"molecular_target": "integrin α5β1 (Homo sapiens, UniProt P05556+P08648)", "sequence (P08648 42-1049)": "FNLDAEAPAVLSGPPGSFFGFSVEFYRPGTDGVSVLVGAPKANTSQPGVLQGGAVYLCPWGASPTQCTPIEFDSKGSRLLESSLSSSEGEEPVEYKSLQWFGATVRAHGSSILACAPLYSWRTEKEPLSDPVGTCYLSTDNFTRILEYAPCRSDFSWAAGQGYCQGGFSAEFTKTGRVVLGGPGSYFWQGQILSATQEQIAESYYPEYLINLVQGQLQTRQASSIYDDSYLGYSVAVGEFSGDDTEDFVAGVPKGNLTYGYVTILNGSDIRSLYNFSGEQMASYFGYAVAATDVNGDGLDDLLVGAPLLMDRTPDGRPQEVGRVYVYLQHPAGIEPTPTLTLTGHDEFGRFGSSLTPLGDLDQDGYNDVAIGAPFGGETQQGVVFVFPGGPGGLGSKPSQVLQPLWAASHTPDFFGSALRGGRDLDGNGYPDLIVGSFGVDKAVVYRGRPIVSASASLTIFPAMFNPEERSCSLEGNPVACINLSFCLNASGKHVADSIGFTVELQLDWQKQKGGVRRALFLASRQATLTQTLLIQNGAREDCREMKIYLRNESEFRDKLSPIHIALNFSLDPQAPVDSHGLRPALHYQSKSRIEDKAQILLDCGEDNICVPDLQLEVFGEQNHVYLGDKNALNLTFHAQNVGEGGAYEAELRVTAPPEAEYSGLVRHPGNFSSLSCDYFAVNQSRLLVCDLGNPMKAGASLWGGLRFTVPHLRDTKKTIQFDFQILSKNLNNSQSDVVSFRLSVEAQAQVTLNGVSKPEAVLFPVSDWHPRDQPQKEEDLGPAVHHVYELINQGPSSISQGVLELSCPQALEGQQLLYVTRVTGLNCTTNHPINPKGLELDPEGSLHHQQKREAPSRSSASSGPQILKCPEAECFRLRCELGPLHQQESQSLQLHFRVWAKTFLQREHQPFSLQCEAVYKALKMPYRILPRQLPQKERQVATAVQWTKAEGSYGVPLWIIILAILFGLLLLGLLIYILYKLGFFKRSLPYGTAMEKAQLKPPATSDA", "sequence (P05556 21-798)": "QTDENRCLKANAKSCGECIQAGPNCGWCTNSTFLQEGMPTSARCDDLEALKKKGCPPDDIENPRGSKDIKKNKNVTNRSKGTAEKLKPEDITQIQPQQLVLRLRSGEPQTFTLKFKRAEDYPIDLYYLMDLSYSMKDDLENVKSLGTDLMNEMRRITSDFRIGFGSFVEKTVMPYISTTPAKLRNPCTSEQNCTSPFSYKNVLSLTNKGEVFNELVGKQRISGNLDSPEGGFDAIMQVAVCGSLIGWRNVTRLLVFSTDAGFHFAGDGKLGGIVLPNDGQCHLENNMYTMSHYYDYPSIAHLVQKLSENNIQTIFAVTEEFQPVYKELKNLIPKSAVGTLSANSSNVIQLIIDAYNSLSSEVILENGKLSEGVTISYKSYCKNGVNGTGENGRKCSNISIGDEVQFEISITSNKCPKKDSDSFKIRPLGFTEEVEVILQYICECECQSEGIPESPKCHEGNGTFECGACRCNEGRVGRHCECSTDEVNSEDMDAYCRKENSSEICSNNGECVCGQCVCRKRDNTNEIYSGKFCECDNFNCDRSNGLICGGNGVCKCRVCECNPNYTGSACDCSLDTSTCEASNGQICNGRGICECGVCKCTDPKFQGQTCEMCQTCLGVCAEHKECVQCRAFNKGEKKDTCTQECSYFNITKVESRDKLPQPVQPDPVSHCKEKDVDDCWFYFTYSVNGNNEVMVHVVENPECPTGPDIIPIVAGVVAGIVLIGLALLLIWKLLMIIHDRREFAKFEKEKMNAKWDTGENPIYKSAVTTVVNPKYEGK", "details": "Lee et al., Sci Rep. 2014; cited from earlier work"}, "Tie2": {"system": "Tie2", "assay": "Triton X-100 fractionation of MEC lysates, Tie2", "assay_type": "cell-based, human", "method": "Tie2 at EC-EC junctions form actin-rich complexes that are insoluble in Triton X-100-based lysis buffers but are soluble when distributed over the surface of the cell. Therefore, MEC monolayers were treated with various combinations of AXT107, Ang1, and Ang2 and cell lysates were fractionated by their solubility in Triton X-100-based lysis buffers. Experiments including VEGF 165 were also performed since VEGFR2 signaling often opposes the activities of Tie2. In each experiment, 100 μM AXT107 was used since it provided clear results relative to lower concentrations of AXT107.\nNext, experiments were performed to determine whether or not relocation of Tie2 to the insoluble fraction was important for Tie2's activation by Ang2. Tie2 was immunoprecipitated from fractionated MEC lysates exposed to Ang2 with or without AXT107 and then immunoblotted for phospho-Tie2.\nThe isolation of Triton X-100 soluble and insoluble fractions was performed using modifications to previously-described procedures (see, e.g., Lampugnani et al., J Cell Biol. 1995; 129(1):203-217). FN1-coated six-well plates were seeded with 2.5×10^6 cells and cultured for forty-eight hours, as described above. The cultures were then serum starved for ninety minutes in EBM-2 media, treated with 100 μM AXT107 or DMSO vehicle, and fifteen minutes with 1 mM sodium vanadate. […] Samples were analyzed by western blot as described above. […]"}}, "data": [{"sequence": "LRRFSTAPFAFIDINDVINF [AXT107]", "values": [{"measurement": "receptor phosphorylation and downstream signals of RTKs", "setting": "[1]", "value": "significantly decreases"}, {"measurement": "FITC-dextran diffusion into the top chamber", "setting": "MEC monolayers; Ang2 alone added to monolayers pre-incubated with 100 μM AXT107, vs growth factor alone", "value": "significant decrease"}, {"measurement": "FITC-dextran diffusion into the top chamber", "setting": "MEC monolayers; Ang2 in combination with VEGF, monolayers pre-incubated with 100 μM AXT107, vs growth factors alone", "value": "significant decrease"}, {"measurement": "FITC-dextran diffusion", "setting": "MEC monolayers; VEGF in presence vs absence of peptide", "value": "similar, but non-significant trend"}, {"measurement": "FITC-dextran diffusion across the monolayer, single treatment", "setting": "MEC monolayers; each agent alone", "value": "influenced FITC-dextran diffusion across the monolayer"}, {"measurement": "binding to integrin α5β1", "setting": "integrin α5β1", "value": "binds tightly"}, {"measurement": "amount of Tie2 in Triton X-100 insoluble fraction", "setting": "Tie2; 100 μM AXT107, independent of growth factor treatment", "value": "increased amounts"}, {"measurement": "phospho-Tie2 in fractionated lysates immunoprecipitated for Tie2", "setting": "Tie2; MEC exposed to Ang2 with or without AXT107", "value": "observed only in the insoluble fractions of peptide-treated samples"}]}]}
